# Assays:
# T47D = assay: Growth inhibition of human T47D cells assessed as cell growth at 10 uM after 48 hrs by sulforhodamine B assay; assay type: functional; details: read-out: Activity
# [1] = Growth inhibition of human Hs 578T cells assessed as cell growth at 10 uM after 48 hrs by sulforhodamine B assay; assay type: functional; details: read-out: Activity
# UO-31 [2] = assay: Growth inhibition of human UO31 cells assessed as cell growth at 10 uM after 48 hrs by sulforhodamine B assay; assay type: functional; details: UO-31, 48 h, read-out: Activity
# PC-3 = assay: Growth inhibition of human PC3 cells assessed as cell growth at 10 uM after 48 hrs by sulforhodamine B assay; assay type: functional; details: PC-3, 48 h, read-out: Activity
# SK-OV-3 = assay: Growth inhibition of human SKOV3 cells assessed as cell growth at 10 uM after 48 hrs by sulforhodamine B assay; assay type: functional; details: SK-OV-3, 48 h, read-out: Activity
# [3] = Growth inhibition of human NCI-ADR-RES cells assessed as cell growth at 10 uM after 48 hrs by sulforhodamine B assay; assay type: functional; details: read-out: Activity
# OVCAR-5 [4] = assay: Growth inhibition of human OVCAR5 cells assessed as cell growth at 10 uM after 48 hrs by sulforhodamine B assay; assay type: functional; details: OVCAR-5, 48 h, read-out: Activity
# OVCAR-8 [5] = assay: Growth inhibition of human OVCAR8 cells assessed as cell growth at 10 uM after 48 hrs by sulforhodamine B assay; assay type: functional; details: OVCAR-8, 48 h, read-out: Activity
# OVCAR-3 = assay: Growth inhibition of human OVCAR3 cells assessed as cell growth at 10 uM after 48 hrs by sulforhodamine B assay; assay type: functional; details: OVCAR-3, 48 h, read-out: Activity
# U-251 [6] = assay: Growth inhibition of human U251 cells assessed as cell growth at 10 uM after 48 hrs by sulforhodamine B assay; assay type: functional; details: U-251, 48 h, read-out: Activity
# SF-268 [7] = assay: Growth inhibition of human SF268 cells assessed as cell growth at 10 uM after 48 hrs by sulforhodamine B assay; assay type: functional; details: SF-268, 48 h, read-out: Activity
# COLO 205 = assay: Growth inhibition of human COLO205 cells assessed as cell growth at 10 uM after 48 hrs by sulforhodamine B assay; assay type: functional; details: COLO 205, 48 h, read-out: Activity
# NCI-H522 = assay: Growth inhibition of human NCI-H522 cells assessed as cell growth at 10 uM after 48 hrs by sulforhodamine B assay; assay type: functional; details: NCI-H522, 48 h, read-out: Activity
# HOP-62 [8] = assay: Growth inhibition of human HOP62 cells assessed as cell growth at 10 uM after 48 hrs by sulforhodamine B assay; assay type: functional; details: HOP-62, 48 h, read-out: Activity
# HL-60(TB) = assay: Growth inhibition of human HL-60(TB) cells assessed as cell growth at 10 uM after 48 hrs by sulforhodamine B assay; assay type: functional; details: HL-60, 48 h, read-out: Activity
# HCT-15 = assay: Growth inhibition of human HCT15 cells after 48 hrs by sulforhodamine B assay; assay type: functional; details: HCT-15, 48 h
# NCI-H460 = assay: Growth inhibition of human NCI-H460 cells after 48 hrs by sulforhodamine B assay; assay type: functional; details: NCI-H460, 48 h
# NCI-H23 = assay: Growth inhibition of human NCI-H23 cells after 48 hrs by sulforhodamine B assay; assay type: functional; details: NCI-H23, 48 h
# HOP-62 [9] = assay: Growth inhibition of human HOP62 cells after 48 hrs by sulforhodamine B assay; assay type: functional; details: HOP-62, 48 h
# SR = assay: Growth inhibition of human SR cells after 48 hrs by sulforhodamine B assay; assay type: functional
# MOLT-4 = assay: Growth inhibition of human MOLT4 cells after 48 hrs by sulforhodamine B assay; assay type: functional; details: MOLT-4, 48 h
# CCRF-CEM = assay: Growth inhibition of human CCRF-CEM cells after 48 hrs by sulforhodamine B assay; assay type: functional
# UO-31 [10] = assay: Growth inhibition of human UO31 cells after 48 hrs by sulforhodamine B assay; assay type: functional; details: UO-31, 48 h
# CAKI-1 = assay: Growth inhibition of human CAKI-1 cells after 48 hrs by sulforhodamine B assay; assay type: functional; details: CAKI-1, 48 h
# 786-0 = assay: Growth inhibition of human 786-0 cells after 48 hrs by sulforhodamine B assay; assay type: functional; details: 786-0, 48 h
# OVCAR-8 [11] = assay: Growth inhibition of human OVCAR8 cells after 48 hrs by sulforhodamine B assay; assay type: functional; details: OVCAR-8, 48 h
# [12] = Growth inhibition of human NCI-ADR-RES cells after 48 hrs by sulforhodamine B assay; assay type: functional
# OVCAR-5 [13] = assay: Growth inhibition of human OVCAR5 cells after 48 hrs by sulforhodamine B assay; assay type: functional; details: OVCAR-5, 48 h
# OVCAR-4 = assay: Growth inhibition of human OVCAR4 cells after 48 hrs by sulforhodamine B assay; assay type: functional; details: OVCAR-4, 48 h
# SK-MEL-5 = assay: Growth inhibition of human SK-MEL-5 cells after 48 hrs by sulforhodamine B assay; assay type: functional; details: SK-MEL-5, 48 h
# MDA-MB-435 = assay: Growth inhibition of human MDA-MB-435 cells after 48 hrs by sulforhodamine B assay; assay type: functional, cell-based; details: MDA-MB-435, 48 h
# M14 = assay: Growth inhibition of human M14 cells after 48 hrs by sulforhodamine B assay; assay type: functional; details: M14, 48 h
# Malme-3M = assay: Growth inhibition of human MALME-3M cells after 48 hrs by sulforhodamine B assay; assay type: functional
# U-251 [14] = assay: Growth inhibition of human U251 cells after 48 hrs by sulforhodamine B assay; assay type: functional; details: U-251, 48 h
# SF-268 [15] = assay: Growth inhibition of human SF268 cells after 48 hrs by sulforhodamine B assay; assay type: functional; details: SF-268, 48 h
# [16] = read-out: LC50 (the source's name)
smiles,measurement,setting,value
Cc1cc(C(=O)Nc2cccc(-n3cc(-c4ccncc4)c(-c4ccc(Cl)c(O)c4)n3)c2)ccc1Br,growth at 10 µM,T47D,87.7%
same,growth at 10 µM,[1],108%
same,growth at 10 µM,UO-31 [2],74.7%
same,growth at 10 µM,PC-3,86.8%
same,growth at 10 µM,SK-OV-3,100%
same,growth at 10 µM,[3],99.7%
same,growth at 10 µM,OVCAR-5 [4],109%
same,growth at 10 µM,OVCAR-8 [5],95.1%
same,growth at 10 µM,OVCAR-3,104%
same,growth at 10 µM,U-251 [6],92.1%
same,growth at 10 µM,SF-268 [7],104%
same,growth at 10 µM,COLO 205,102%
same,growth at 10 µM,NCI-H522,95.2%
same,growth at 10 µM,HOP-62 [8],98%
same,growth at 10 µM,HL-60(TB),172%
O=C(Nc1cccc(-n2cc(-c3ccncc3)c(-c3ccc(Cl)c(O)c3)n2)c1)c1ccc(Cl)c(C(F)(F)F)c1,growth at 10 µM,T47D,100%
same,growth at 10 µM,[1],91.9%
same,growth at 10 µM,UO-31 [2],81.2%
same,growth at 10 µM,PC-3,85.7%
same,growth at 10 µM,SK-OV-3,102%
same,growth at 10 µM,[3],104%
same,growth at 10 µM,OVCAR-5 [4],99.6%
same,growth at 10 µM,OVCAR-8 [5],96.8%
same,growth at 10 µM,OVCAR-3,95.8%
same,growth at 10 µM,U-251 [6],95.9%
same,growth at 10 µM,SF-268 [7],98.1%
same,growth at 10 µM,COLO 205,104%
same,growth at 10 µM,NCI-H522,94.4%
same,growth at 10 µM,HOP-62 [8],99.4%
same,growth at 10 µM,HL-60(TB),196%
O=C(Nc1cccc(-n2cc(-c3ccncc3)c(-c3ccc(Cl)c(O)c3)n2)c1)c1ccc(N2CCOCC2)c(C(F)(F)F)c1,growth at 10 µM,T47D,69.4%
same,growth at 10 µM,[1],15.5%
same,growth at 10 µM,UO-31 [2],36.9%
same,growth at 10 µM,PC-3,27.2%
same,GI50,HCT-15,1.81 µM
same,LC50,HCT-15,> 50 µM
same,TGI,HCT-15,25.3 µM
same,GI50,NCI-H460,1.72 µM
same,LC50,NCI-H460,> 50 µM
same,TGI,NCI-H460,14.8 µM
same,GI50,NCI-H23,4.2 µM
same,LC50,NCI-H23,> 50 µM
same,TGI,NCI-H23,30.1 µM
same,GI50,HOP-62 [9],9.38 µM
same,TGI,HOP-62 [9],> 50 µM
same,CC50,HOP-62 [9]; [16],> 50 µM
same,GI50,SR,1.63 µM
same,TGI,SR,> 50 µM
same,CC50,SR; [16],> 50 µM
same,GI50,MOLT-4,2.37 µM
same,TGI,MOLT-4,36.7 µM
same,CC50,MOLT-4; [16],> 50 µM
same,GI50,CCRF-CEM,1.82 µM
same,LC50,CCRF-CEM,> 50 µM
same,TGI,CCRF-CEM,> 50 µM
same,growth at 10 µM,SK-OV-3,74.2%
same,growth at 10 µM,[3],43.9%
same,growth at 10 µM,OVCAR-5 [4],116%
same,growth at 10 µM,OVCAR-8 [5],37%
same,growth at 10 µM,OVCAR-3,56%
same,growth at 10 µM,U-251 [6],11.8%
same,growth at 10 µM,SF-268 [7],55.5%
same,growth at 10 µM,COLO 205,96.1%
same,growth at 10 µM,NCI-H522,39.6%
same,GI50,UO-31 [10],2.6 µM
same,TGI,UO-31 [10],34.3 µM
same,CC50,UO-31 [10]; [16],> 50 µM
same,GI50,CAKI-1,2.78 µM
same,TGI,CAKI-1,24.6 µM
same,CC50,CAKI-1; [16],> 50 µM
same,GI50,786-0,2.83 µM
same,TGI,786-0,12.5 µM
same,CC50,786-0; [16],46.3 µM
same,GI50,OVCAR-8 [11],3.16 µM
same,TGI,OVCAR-8 [11],> 50 µM
same,CC50,OVCAR-8 [11]; [16],> 50 µM
same,GI50,[12],2.86 µM
same,TGI,[12],> 50 µM
same,CC50,[12]; [16],> 50 µM
same,GI50,OVCAR-5 [13],> 50 µM
same,LC50 (concentration killing 50% of cells),OVCAR-5 [13],> 50 µM
same,TGI,OVCAR-5 [13],> 50 µM
same,GI50,OVCAR-4,39.2 µM
same,LC50 (concentration killing 50% of cells),OVCAR-4,> 50 µM
same,TGI,OVCAR-4,> 50 µM
same,GI50,SK-MEL-5,2.47 µM
same,LC50 (concentration killing 50% of cells),SK-MEL-5,31.8 µM
same,TGI,SK-MEL-5,10.2 µM
same,GI50,MDA-MB-435,2.04 µM
same,IC50,MDA-MB-435,2.04 µM
same,TGI,MDA-MB-435,> 50 µM
same,CC50,MDA-MB-435; [16],> 50 µM
same,GI50,M14,1.63 µM
same,LC50 (concentration killing 50% of cells),M14,49.6 µM
same,TGI,M14,9.1 µM
same,GI50,Malme-3M,1.25 µM
same,LC50 (concentration killing 50% of starting cells),Malme-3M,> 50 µM
same,TGI,Malme-3M,4.08 µM
same,GI50,U-251 [14],1.85 µM
same,LC50 (concentration killing 50% of cells),U-251 [14],> 50 µM
same,TGI,U-251 [14],24.9 µM
same,GI50,SF-268 [15],5.58 µM
same,TGI,SF-268 [15],> 50 µM
same,CC50,SF-268 [15]; [16],> 50 µM
same,growth at 10 µM,HOP-62 [8],40.4%
same,growth at 10 µM,HL-60(TB),51.6%

# Reference: ChEMBL document CHEMBL2440076, “New triarylpyrazoles as broad-spectrum anticancer agents: design, synthesis, and biological evaluation” (Eur J Med Chem, 2013)
